Patent publication US5705333A, “Peptide-based nucleic acid mimics(PENAMS)” (The Regents of The University of California, priority 1994, dated 1998)

Test system: dT10
Experiment: Thermal denaturation (UV absorbance melting curve, Tm) of hybrids with complementary oligonucleotide dT10
Assay type: binding
Details: for Tm (°C.) Me2 AsO2 Na: 10 mM sodium cacodylate buffer; for Tm (°C.) Nax PO4: phosphate buffer
Description: Thermal denaturation of an ordered, native structure of a nucleic acid disrupts the base-pair stacking and, as a result, the UV absorbance increases. The change in UV absorbance, known as […], is a measure of base-pairing and base-stacking between the two complementary strands. The UV absorbance profile as a function of temperature is called a melting curve and the midpoint of this curve is defined as the melting temperature, Tm, at which 50% of the double strand is dissociated into its two single strands. Thus, the measurement of UV absorbance melting curves provides qualitative and quantitative structural information about the nucleic acid bound to its complementary ligand. Tm also depends on the concentration of the oligonucleotide and the properties of the solvent (buffer: pH, ionic strength, etc.).
Binding studies were carried out by hybridizing the isolated PENAM described above to its complementary oligonucleotide "dT10 " followed by thermal denaturation and measurement of UV absorbance as a function of temperature. The synthetic oligodeoxynucleotide (ODN) dT10 and its complementary oligodeoxynucleotide dA10 were used as the reference nucleic acids. The samples prepared in phosphate buffer (Nax PO4) can precipitate magnesium phosphate at high temperature during the thermal denaturation cycle. This problem was readily avoided by repeating the experiment in 10 mM sodium cacodylate buffer (Me2 AsO2 Na) instead of the phosphate buffer.

[1] = dT10 + 2KpA10 Km, stoichiometry 1:0:2
[2] = dT10 + KpA10 Km, stoichiometry 1:0:1
[3] = dT10 + dA10 + 2KpA10 Km, stoichiometry 1:1:2
[4] = dT10 + dA10 + KpA10 Km, stoichiometry 1:1:1
[5] = thermal denaturation, summary of Table 1

H-Lys-{(D/L)-(AdhAla)10 }-Lys-NH2 [KpA10 Km]
Tm (°C.) Me2 AsO2 Na (2dT10 + KpA10 Km, stoichiometry 2:0:1): 32.28 °C | Tm (°C.) Me2 AsO2 Na [1]: 32.57 °C | Tm (°C.) Nax PO4 [1]: 30.8 °C | Tm (°C.) Me2 AsO2 Na [2]: 31.00 °C | Tm (°C.) Nax PO4 [2]: 31.26 °C | Tm (°C.) Me2 AsO2 Na [3]: 32.26 °C | Tm (°C.) Nax PO4 [3]: 30.07 °C | Tm (°C.) Me2 AsO2 Na [4]: 31.052 °C | Tm (°C.) Nax PO4 [4]: 31.41 °C | Binding to complementary nucleic acid strand [5]: binds to its complementary nucleic acid strand | Melting temperature compared with reference ODN dT10:dA10 [5]: melt at an even higher temperature than the reference ODN
